Data taken from patent US6127342A, “Method for preventing or treating a lung disease caused by active oxygen and free radical injury” (Teijin Limited, priority 1991, dated 2000).

What was measured:
[1] = test system: cardiac muscle mitochondria; assay: Glutathione content of cardiac muscle mitochondria after coronary ischemia-reperfusion; assay type: in vivo; conditions: dog; for effect on reduction of mitochondrial glutathione during reperfusion / Glutathione content of cardiac muscle mitochondria, GSH + GSSG, normal area / Glutathione content of cardiac muscle mitochondria, GSH, normal area / Glutathione content of cardiac muscle mitochondria, GSSG, normal area / Glutathione content of cardiac muscle mitochondria, GSH + GSSG, ischemic or reperfused area / Glutathione content of cardiac muscle mitochondria, GSH, ischemic or reperfused area / Glutathione content of cardiac muscle mitochondria, GSSG, ischemic or reperfused area: 10 mg/kg i.v. just before reperfusion; for Glutathione content of cardiac muscle mitochondria, GSH + GSSG, normal area / Glutathione content of cardiac muscle mitochondria, GSH, normal area / Glutathione content of cardiac muscle mitochondria, GSSG, normal area / Glutathione content of cardiac muscle mitochondria, GSH + GSSG, ischemic or reperfused area / Glutathione content of cardiac muscle mitochondria, GSH, ischemic or reperfused area / Glutathione content of cardiac muscle mitochondria, GSSG, ischemic or reperfused area: 2 h ischemia / 1 h reperfusion
Protocol: After anesthetizing 52 adult mongrel dogs of either sex weighing ca. 10 kg by intraperitoneal administration of 50 mg/kg of sodium pentobarbital, breathing tubes were immediately intubated endotracheally and artificial ventilation was continued using a Harvard ventilator. Electrocardiogram electrodes were attached, and monitoring and recording were continued throughout the experiment. Following insertion of cannulas in the right femoral vein and right femoral artery, the cannulas were used for continuous intravenous drip of physiological saline to replenish water or administration of the test preparation, and monitoring of arterial blood pressure, respectively. After performing left thoracotomy in the fourth or fifth intercostal space, the pericardium was torn to expose the heart. Ischemia was induced by ligating the left anterior descending coronary artery immediately distal to the first diagonal branch, while reperfusion was performed by subsequently removing that ligation.
The animals were divided into four groups. Group 1 (n=9) was subjected to ischemia for 2 hours, group 2 (n=17) was subjected to ischemia for 2 hours followed by reperfusion for 1 hour, group 3 (n=10) was subjected to ischemia for 2 hours followed by reperfusion for 1 hour plus intravenous injection of 10 mg/kg of γ-GCE just before reperfusion, and group 4 (n=16) was subjected to 2 hours of ischemia followed by 1 hour of reperfusion plus intravenous injection of 10 mg/kg of reduced glutathione (GSH, control drug) just before reperfusion.
Evaluation of ischemia-reperfusion injury was performed, following completion of ischemia-reperfusion, by measuring (1) glutathione content of mitochondria, and (2) mitochondrial function, and so on, at the ischemic or reperfused area and the normal area of the heart. Mitochondria was obtained by removing the heart immediately after the end of ischemia or reperfusion, washing with cold physiological saline, promptly cutting out the ischemic or reperfused area and the normal area, and immediately performing preparation from the respective area according to the method described by Hatefi, et al. in Arch. Biochem. Biophys., Vol. 94, pp. 148-155, 1961.
The glutathione content of the mitochondria was measured by applying the method described by Tietze in Anal. Biochem., Vol. 27, pp. 502-522, 1969 to the supernatant obtained by immediately adding 1/10 vol of 27.5% (w/v) sulfosalicylic acid dihydrate aqueous solution to the prepared mitochondria suspension followed by protein denaturation and centrifugation. Evaluation of mitochondrial function was performed according to the method described by Sugiyama, et al. in Am. Heart J., Vol. 100, pp. 829-837, 1980, by polarographically measuring respiratory ability using an oxygen electrode and determining the rate of oxygen consumption is state III (St. III O2) and the respiratory control index (RCI).

[2] = test system: liver ischemia-reperfusion model using rats; assay: Serum AST, ALT and LDH after 1 hour of reperfusion; assay type: in vivo; conditions: rat; 50 mg/kg i.v.
Protocol: Male Wister rats weighing 250-300 g were fasted with free access to water 24 hours before the experiment. Seventy-two rats were divided into three groups of 24 animals each, i.e., the control group, the GSH administration group and the γ-GCE-administration group. Each rat was anesthetized by intraperitoneal administration of 40 mg/0.8 ml/kg of sodium pentobarbital, and the femoral vein was cannulated. In the GSH group and the γ-GCE group, 50 mg/kg of GSH or γ-GCE respectively were administered intravenously. Physiological saline was then infused for volume replacement in each group, as a continuous intravenous infusion at a rate of 0.8 ml/hr with an injection pump throughout the experiment. Thirty minutes after starting injection of physiological saline, the abdomon was opened by a midline incision and the liver hilus was exposed. According to the method described by Hasselgren, et al. in J. Surg. Res., Vol. 34, pp. 409-414, 1984, all vessels to the left and median lobes of the liver, more specifically, hepatic artery, portal vein and the bile duct, were clamped to produce an ischemic state for 2 hours. Since blood vessels to the remaining parts of the liver were not occluded by this method, poral stasis could be avoided which was of special relevance for circulation stability in rats. Thereafter, occlusion of all vessels was released by removing the clamp to allow reperfusion for 1 hour. The abdominal walls were closed during ischemia and reperfusion.
Using 18 rats in each group, the livers of 6 animals from each group were removed before ischemia, after 2 hours of ischemia, and after 1 hour of reperfusion, respectively. A portion of the liver from each animal was rapidly frozen in liquid nitrogen and used for measurement of glutathione,adenine nucleotides and lipid peroxide. From the remaining portion of the liver, mitochondria was immediately extracted according to the method described by Hogeboom and Schneider in the J. Biol. Chem., Vol. 172, p. 619, 1948. In other experiments, immediately after starting reperfusion, blood from the hepatic vein was collected using 6 rats from each group. These blood samples were then used to measure leaked adenine nucleotides. In addition, after 1 hour of said reperfusion, blood samples were also drawn, which were then used to measure the activity of the leaked liver cell enzymes.
Evaluation of ischemia-reperfusion injury was performed by measuring liver tissue (1) mitochondrial function, (2) glutathione concentration, (3) adenine nucleotides concentration, and (4) lipid peroxide concentration, as well as liver tissue derived (5) adenine nucleotides concentration in the hepatic vein immediately after starting reperfusion, and (6) liver cell enzyme activities in the blood after 1 hour of reperfusion. More specifically, the mitochondrial function in (1) was measured according to the method described by Chance, et al. in Adv. Enzymol., Vol. 17, p. 65, 1956. In addition, the quantitative determination of glutathione in (2) was performed using the same method as Experiment 1 on supernatant obtained by adding 10 vol/g of tissue weight of 2.5% (w/v) sulfosalicylic acid dihydrate aqueous solution to the liver tissue followed by homogenization and centrifugation. In addition, the quantitative determination of adenine nucleotides in (3) was performed by neutralizing the perchloric acid extract of the liver tissue with potassium hydroxide followed by removal of the precipitate and applying to an ion exchange HPLC column according to the method described by Sugino, et al. in J. Chromatogr., Vol. 361, pp. 427-431, 1986. In addition, the measurement of lipid peroxide in (4) was performed according to the thiobarbiturate method described by Ohkawa, et al. in Anal. Biochem., Vol. 95, p. 351, 1979. […]

Row | SMILES | effect on reduction of mitochondrial glutathione during reperfusion [1] | Glutathione content of cardiac muscle mitochondria, GSH + GSSG, normal area [1] | Glutathione content of cardiac muscle mitochondria, GSH, normal area [1] | Glutathione content of cardiac muscle mitochondria, GSSG, normal area [1] | Glutathione content of cardiac muscle mitochondria, GSH + GSSG, ischemic or reperfused area [1] | Glutathione content of cardiac muscle mitochondria, GSH, ischemic or reperfused area [1] | Glutathione content of cardiac muscle mitochondria, GSSG, ischemic or reperfused area [1] | Serum ALT after 1 hour of reperfusion [2] [IU/L] | Serum AST after 1 hour of reperfusion [2] [IU/L] | Serum LDH after 1 hour of reperfusion [2] [IU/L] | effect on leakage of liver cell enzymes into the blood following 1 hour of reperfusion [2] | mitochondrial glutathione levels (GSH, GSH+GSSG) of reperfused area relative to normal area after reperfusion ([1]; 10 mg/kg just before reperfusion)
1 | N[C@@H](CCC(=O)N[C@@H](CS)C(=O)NCC(=O)O)C(=O)O [GSH, reduced glutathione, reference compound] | no such effects were observed | 3.94 ± 0.33 | 3.67 ± 0.37 | 0.27 ± 0.08 | 2.44 ± 0.57 | 2.17 ± 0.52 | 0.27 ± 0.09 | 2337 ± 571 | 3914 ± 1102 | 26435 ± 12191 | did not significantly mitigate the leakage | –
2 | CCOC(=O)[C@H](CS)NC(=O)CC[C@H](N)C(=O)O [γ-GCE, γ-L-glutamyl-L-cysteine ethyl ester] | significantly suppress further reduction of glutathione during the reperfusion | 4.06 ± 0.52 | 3.68 ± 0.54 | 0.38 ± 0.09 | 3.57 ± 0.46 | 3.12 ± 0.40 | 0.45 ± 0.15 | 924 ± 330 | 2071 ± 625 | 14678 ± 2763 | significantly reduced leakage of enzymes from liver cells | 85-88%
